Assay results: EP4563149A1, “LURBINECTEDIN, ECUBECTEDIN AND A RELATED COMPOUND FOR USE IN THE TREATMENT OF SKIN CANCERS” (Pharma Mar, S.A., priority 2023, dated 2025)
Where two headings read alike, the source gives them in different places.

Assays:
[1] = system: IGR37; experiment: Cell viability assay (PrestoBlue), 72h; settings: Homo sapiens, IGR-37, 72 h
Method: Cells were grown at 37°C in 5% CO2 (10% for Hermes 3A) and were regularly checked for mycoplasma contamination. […] Melanoma cell lines 501mel and SKmel28 were grown in RPMI w/o HEPES (Gibco, Invitrogen) supplemented with 10% FCS and gentamycin. Vemurafenib-resistant cells (501melVemuR and MM074VemuR) were additionally supplemented with 1.5 µM of vemurafenib. Melanoma IGR cell lines (IGR37 and IGR39) were grown in RPMI w/o HEPES (Gibco, Invitrogen) supplemented with 15% FCS and gentamycin.
(§6) To determine the IC50 (half maximal inhibitory concentration) of these cells to various inhibitors, cell viability assays were performed.
(§7) After 72h of treatment with different concentrations of the compounds, cells were treated with PrestoBlue reagent according to the manufacturer's instructions. The absorbance per well was measured with a Cellinsight CX5 microplate reader. Data were analyzed using Prism9 statistical software.

[2] = system: MM099; experiment: Cell viability assay (PrestoBlue), 72h; settings: Homo sapiens
Method: (§8) Cells were grown at 37°C in 5% CO2 (10% for Hermes 3A) and were regularly checked for mycoplasma contamination. […] Melanoma IGR cell lines (IGR37 and IGR39) were grown in RPMI w/o HEPES (Gibco, Invitrogen) supplemented with 15% FCS and gentamycin.
as §6, §7

[3] = system: MM074 melanospheres; experiment: Melanosphere apoptosis (AnnexinV-APC / propidium iodide); format: cell-based, human; settings: 72h
Method: MM074 proliferative/differentiated cell line were seeded (5×10^4 cells) in ultra-low attachment hydrogel-layered 96 well plates in KO DMEM medium supplemented with 20% KSR, AANE, 2 mM Glutamax, Penicillin/Streptomycin and 100 uM Beta-mercaptoethanol. To allow for melanosphere formation, cells were left to grow for 4 days before drug treatment.
For apoptosis assays with 3D-grown melanoma cells, TrypLe Select 10x reagent (Gibco) was used to dissociate melanospheres to obtain single-cell suspensions. These cells were incubated with AnnexinV-APC (Biolegend) and Propidium Iodide (PI, Biolegend). With bivariant dot plots, it was distinguished between viable (AnnexinV-/PI-), early apoptotic (AnnexinV+/PI-), late apoptotic (AnnexinV+/PI+) and necrotic cells (AnnexinV-/PI+).

[4] = system: 501mel^VemuR; experiment: Cell viability assay (PrestoBlue), 72h; settings: Homo sapiens
Method: Cells were grown at 37°C in 5% CO2 (10% for Hermes 3A) and were regularly checked for mycoplasma contamination. MM patient-derived short-term melanoma cultures (MM011, MM074, MM117, MM029, MM047, MM099) were grown in HAM-F10 (Gibco, Invitrogen) supplemented with 10% Fetal Calf Serum (FCS), 25 mM HEPES, 5.2 mM GLUTAMAX and penicillin-streptomycin. Melanoma cell lines 501mel and SKmel28 were grown in RPMI w/o HEPES (Gibco, Invitrogen) supplemented with 10% FCS and gentamycin. Vemurafenib-resistant cells (501melVemuR and MM074VemuR) were additionally supplemented with 1.5 µM of vemurafenib. Melanoma IGR cell lines (IGR37 and IGR39) were grown in RPMI w/o HEPES (Gibco, Invitrogen) supplemented with 15% FCS and gentamycin.
as §6, §7

[5] = system: 501 mel^Vemur cell line; settings: 1.2 mg/kg intravenous
Method: (§1) Female athymic nu/nu mice (Harlan Laboratories Models, S.L. Barcelona, Spain or Envigo, Spain) were utilized for all experiments. Animal were housed in individually ventilated cages Sealsafe® Plus, Techmplast S.P.A.), up to ten per cage on a 12-hour light-dark cycle at 21-23 °C and 40-60 % humidity. Mice were allowed free access to irradiated standard rodent diet (Tecklad 2914C) and sterilized water. Animals were acclimated for at least 5 days prior to tumor implantation with a tumor cell suspension.
(§2) The cell line used are: • 501mel • IGR-37 • SK-Mel-28 • WM-266-4 • LOX-IMVI • 501mel^Vemur
(§3) In xenograft studies with cell lines: • Tumour volume was calculated using the equation […], where a: length (longest diameter) and b: width (shortest diameter) were measured in mm by using digital caliper (Fowler Sylvac, S235PAT). Tumour dimensions and body weights were recorded 2-3 times per week starting from the first day of treatment. • When tumors reached ca. 150-250 mm^3, tumour bearing animals (N = 8-10/group) were randomly allocated into the treatment groups, based on body weight and tumour measurements by using NewLab Oncology Software (version 2.25.06.00). • Comparison between median tumour volume of treated and placebo groups was used for evaluation of the antitumoural efficacy. • Animals were euthanized when their tumours reached ca. 1,500 mm^3 and/or severe necrosis was seen.
(§4) Treatments producing >20 % lethality and/or 20% net body weight loss were considered toxic.
(§5) In these experiments, PM14 and Compound IA, as well as placebo, were intravenously administered once per week for 3 consecutive weeks, on days 0, 7 and 14, whenever it was possible.

[6] = system: WM-266-4 melanoma xenografts; settings: 1.2 mg/kg intravenous
Method: as §1, §2, §3, §4, §5
Table 7. Tumour volume evaluation in WM-266-4 melanoma xenografts with PM14 and Compound IA and placebo.

[7] = system: melanoma cells 501mel; experiment: Cell cycle analysis by flow cytometry (PI); format: cell-based, human; settings: IC50 concentrations
Method: For cell cycle analysis, 2×10^6 cells were seeded in 6 well plates. […] After 2 washes with cold PBS, cells were incubated with RNAse A and PI for 1h in the dark, before being analyzed on a BD LSRFortessaTM Flow Cytometer. Data were analysed with FlowJo software.

[8] = system: xenografts with various melanoma cell lines; settings: different xenografts, 1.2 mg/kg intravenous once per week for 3 weeks
Method: as §1, §2
as §3, with “seen. […]” for “seen.”

[9] = system: IGR37; experiment: Cell viability assay (PrestoBlue), 72h, last line of Table 2; settings: Homo sapiens, IGR-37, 72 h
Method: as §8, §6, §7

[10] = system: LOX-IMVI melanoma xenografts; settings: 1.2 mg/kg intravenous
Method: as §1, §2, §3, §4, §5
Tumour volume evaluation in LOX-IMVI melanoma xenografts with PM14 and Compound IA and placebo.

[11] = system: 501mel, 501mel^VemuR or SKMEL28 melanoma cells; settings: weekly IV 1.2mg/kg
Method: To investigate the effects of the aforementioned tested drugs in living organisms, it was decided to examine the impact of PM14 and Compound IA on melanoma cell-derived xenograft (CDXs) mouse models. Human 501mel, 501mel^VemuR or SKMEL28 melanoma cells were subcutaneously implanted into the right flank of NSG mice.
Tumor volumes were monitored following weekly IV treatments of PM14 or Comp IA at a concentration of 1.2mg/kg. Treatments commenced (Day 0) when the tumors reached 150 mm^3 in female NSG mice aged 4 to 6 weeks (N=8/group).

[12] = system: Hermes3A; experiment: Cell viability assay (PrestoBlue), 72h
Method: as §8, §6, §7

## COc1c(C)cc2c(c1O)[C@@H]1[C@@H]3[C@@H]4SC[C@]5(N[C@H](CO)Cc6c5oc5ccccc65)C(=O)OC[C@@H](c5c6c(c(C)c(OC(C)=O)c54)OCO6)N3[C@@H](O)[C@H](C2)N1C [Compound IA]
[1]
  IC50: 1.48 nM
[2]
  IC50: 1.85 nM
[3]
  late apoptotic cells positive for Annexin V and propidium iodide: substantial population of late apoptotic cells
[4]
  IC50: 2.13 nM
[5]; days 0, 7 and 14, day 0
  Median Tumour Volume: 160.3 mm^3
[5]; days 0, 7 and 14, day 2
  Median Tumour Volume: 249 mm^3
[5]; days 0, 7 and 14, day 4
  Median Tumour Volume: 306.8 mm^3
[5]; days 0, 7 and 14, day 7
  Median Tumour Volume: 378.8 mm^3
[5]; days 0, 7 and 14, day 9
  Median Tumour Volume: 417.2 mm^3
[5]; days 0, 7 and 14, day 11
  Median Tumour Volume: 453.7 mm^3
[5]; days 0, 7 and 14, day 14
  Median Tumour Volume: 490.8 mm^3
[5]; days 0, 7 and 14, day 16
  Median Tumour Volume: 517.4 mm^3
[5]; days 0, 7 and 14, day 18
  Median Tumour Volume: 572.1 mm^3
[5]; days 0, 7 and 14, day 21
  Median Tumour Volume: 666.9 mm^3
[5]; days 0, 7 and 14, day 23
  Median Tumour Volume: 703.5 mm^3
[5]; days 0, 7 and 14, day 25
  Median Tumour Volume: 739.3 mm^3
[5]; days 0, 7 and 14, day 28
  Median Tumour Volume: 861.2 mm^3
[5]; days 0, 7 and 14, day 30
  Median Tumour Volume: 986.4 mm^3
[5]; days 0, 7 and 14, day 35
  Median Tumour Volume: 997.4 mm^3
[5]; days 0, 7 and 14, day 42
  Median Tumour Volume: 900.1 mm^3
[5]; days 0, 7 and 14, day 44
  Median Tumour Volume: 982.3 mm^3
[5]; days 0, 7 and 14, day 46
  Median Tumour Volume: 1080 mm^3
[5]; days 0, 7 and 14, day 49
  Median Tumour Volume: 1,169.4 mm^3
[5]; days 0, 7 and 14, day 53
  Median Tumour Volume: 1,262.1 mm^3
[5]; days 0, 7 and 14, day 56
  Median Tumour Volume: 1,521.8 mm^3
[6]; days 0, 7 and 14, day 0
  Median Tumour Volume: 169.5 mm^3
[6]; days 0, 7 and 14, day 3
  Median Tumour Volume: 109.8 mm^3
[6]; days 0, 7 and 14, day 5
  Median Tumour Volume: 100 mm^3
[6]; days 0, 7 and 14, day 7
  Median Tumour Volume: 104.4 mm^3
[6]; days 0, 7 and 14, day 10
  Median Tumour Volume: 97.8 mm^3
[6]; days 0, 7 and 14, day 12
  Median Tumour Volume: 89.2 mm^3
[6]; days 0, 7 and 14, day 14
  Median Tumour Volume: 94.9 mm^3
[6]; days 0, 7 and 14, day 17
  Median Tumour Volume: 68.8 mm^3
[6]; days 0, 7 and 14, day 19
  Median Tumour Volume: 75.7 mm^3
[6]; days 0, 7 and 14, day 21
  Median Tumour Volume: 95.2 mm^3
[6]; days 0, 7 and 14, day 24
  Median Tumour Volume: 75.7 mm^3
[6]; days 0, 7 and 14, day 26
  Median Tumour Volume: 96.7 mm^3
[6]; days 0, 7 and 14, day 28
  Median Tumour Volume: 99.4 mm^3
[6]; days 0, 7 and 14, day 34
  Median Tumour Volume: 134.3 mm^3
[6]; days 0, 7 and 14, day 41
  Median Tumour Volume: 275.2 mm^3
[6]; days 0, 7 and 14, day 45
  Median Tumour Volume: 312.1 mm^3
[6]; days 0, 7 and 14, day 48
  Median Tumour Volume: 461.7 mm^3
[6]; days 0, 7 and 14, day 55
  Median Tumour Volume: 749.7 mm^3
[6]; days 0, 7 and 14, day 62
  Median Tumour Volume: 985.3 mm^3
[6]; days 0, 7 and 14, day 69
  Median Tumour Volume: 1,145.3 mm^3
[7]
  cell cycle progression: notable blockade
[8]
  tumor volume compared to the placebo: reduction of the volume tumor
[9]
  IC50: 0.84 nM
[10]; days 0, 7 and 14, day 0
  Median Tumour Volume: 186.2 mm^3
[10]; days 0, 7 and 14, day 2
  Median Tumour Volume: 196.3 mm^3
[10]; days 0, 7 and 14, day 4
  Median Tumour Volume: 138.7 mm^3
[10]; days 0, 7 and 14, day 7
  Median Tumour Volume: 106.8 mm^3
[10]; days 0, 7 and 14, day 9
  Median Tumour Volume: 87.8 mm^3
[10]; days 0, 7 and 14, day 11
  Median Tumour Volume: 56 mm^3
[10]; days 0, 7 and 14, day 14
  Median Tumour Volume: 53.5 mm^3
[10]; days 0, 7 and 14, day 16
  Median Tumour Volume: 54.7 mm^3
[10]; days 0, 7 and 14, day 18
  Median Tumour Volume: 51.4 mm^3
[10]; days 0, 7 and 14, day 21
  Median Tumour Volume: 71.2 mm^3
[10]; days 0, 7 and 14, day 23
  Median Tumour Volume: 99.9 mm^3
[10]; days 0, 7 and 14, day 25
  Median Tumour Volume: 132 mm^3
[10]; days 0, 7 and 14, day 28
  Median Tumour Volume: 597.7 mm^3
[10]; days 0, 7 and 14, day 30
  Median Tumour Volume: 1,158.4 mm^3
[10]; days 0, 7 and 14, day 32
  Median Tumour Volume: 1,098.3 mm^3
[10]; days 0, 7 and 14, day 35
  Median Tumour Volume: 968.8 mm^3
[10]; days 0, 7 and 14, day 37
  Median Tumour Volume: 1,375.6 mm^3
[11]; N=8/group
  antitumor activity (tumor volumes) versus placebo-treated group: statistically significant difference
[11]; three CDX models
  overall survival: significant increase
[12]; Hermes3A versus melanoma cells
  sensitivity of non-cancerous Hermes3A immortalized melanocytes compared with the melanoma cells: less sensitive
[12]; Homo sapiens, Melanocyte, 72 h
  IC50: 4.93 nM
